Like-named read-outs stand apart in the source and are kept apart here.
Assays:
[1] = test system: RAN translation of (G4C2)66-No ATG-GFP in HEK293T cells; assay: Cell-based assay of RAN translation inhibition (GFP/mCherry reporter); details: Homo sapiens, HEK-293T; for IC50: read-out: RANT IC50; for IC25: 24 h, read-out: RANT IC25
[2] = target: Biotin-labeled RNA (target RNA); assay: BLI affinity measurement (ForteBio Octet RED384); format: binding; details: Table G
[3] = target: biotinylated r(G4C2)8 RNA and hnRNP H1-His6; assay: TR-FRET hnRNP H binding assay
Outline: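 Biotinylated r(G4C2)8 RNA (80 nM), heat-folded at 95 °C then slowly cooled, was preincubated 15 min with compound before hnRNP H1-His6 (75 nM) was added. After 15 min, streptavidin-XL665 (40 nM) and anti-His6-Tb (0.44 ng/μL) were added and TR-FRET was read after 1 h. IC50 was obtained by curve fitting.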

[4] = Table D, HEK293T, 24 h treatment
[5] = Table F, HEK293T, 24 h treatment

Ki ([3]; Table D) [µM]	Ki ([3]; Table F) [µM]	Compound	IC25 [1, 4] [µM]	also measured
9.2		COc1ccc2c(c1)c1cc3c(C4CCCO4)nccc3c(C)c1n2C (stereo not drawn) [Example 80b, 9-methoxy-5,6-dimethyl-1-(tetrahydrofuran-2-yl)-6H-pyrido[4,3-b]carbazole]	3.1	
8.1		COc1ccc2c(c1)c1cc3c(C(=O)NCCN(C)C)nccc3c(C)c1n2C [Example 28, N-[2-(dimethylamino)ethyl]-9-methoxy-5,6-dimethyl-pyrido[4,3-b]carbazole-1-carboxamide]	0.64	
2.5		Cc1c2ccncc2cc2c3cc(OCCN4CCN(C)CC4)ccc3n(C)c12 [Example 30, 5,6-dimethyl-9-(2-(4-methylpiperazin-1-yl)ethoxy)-6H-pyrido[4,3-b]carbazole]	2.2	
	> 200	Cc1c2ccncc2cc2c3cc(OCCN4CCOCC4)ccc3n(CC(C)(C)C)c12 [Compound 247, 4-(2-((5-methyl-6-neopentyl-6H-pyrido[4,3-b]carbazol-9-yl)oxy)ethyl)morpholine]		IC25 [1, 5]: > 5 µM
1.8		CCn1c2ccc(OCC3=NCCN3)cc2c2cc3cnccc3c(C)c21 [Example 63, 9-((4,5-dihydro-1H-imidazol-2-yl)methoxy)-6-ethyl-5-methyl-6H-pyrido[4,3-b]carbazole]	4.8	
	8.8	CCn1c2ccc(OCC3=NCCN3)cc2c2cc3cnccc3cc21 [Compound 255, 9-(4,5-dihydro-1H-imidazol-2-ylmethoxy)-6-ethyl-pyrido[4,3-b]carbazole]		IC25 [1, 5]: 1.25 µM
13		Cc1c2ccncc2cc2c3cc(OCC4=NCCN4)ccc3n(C(C)C)c12 [Example 84, 9-(4,5-dihydro-1H-imidazol-2-ylmethoxy)-6-isopropyl-5-methyl-pyrido[4,3-b]carbazole]	> 5	
13		CNCCNC(=O)c1ccc2c(c1)c1cc3cnccc3c(C)c1n2C [Example 73, 5,6-dimethyl-N-(2-(methylamino)ethyl)-6H-pyrido[4,3-b]carbazole-9-carboxamide]	0.84	
33		COc1ccc2c(c1)c1cc3ccncc3c(C)c1n2C [Example 50, 7-methoxy-10,11-dimethyl-10H-pyrido[3,4-b]carbazole]	0.27	
4.2		Cc1c2ccncc2cc2c3cc(C(=O)N4CCN(C)CC4)ccc3n(C)c12 [Example 76, (5,6-dimethyl-6H-pyrido[4,3-b]carbazol-9-yl)(4-methylpiperazin-1-yl)methanone]	2.2	
	0.8	Cn1c2ccc(OCC3=NCCN3)cc2c2cc3cnccc3cc21 [Compound 234, 9-((4,5-dihydro-1H-imidazol-2-yl)methoxy)-6-methyl-6H-pyrido[4,3-b]carbazole]		IC25 [1, 5]: 0.65 µM
	1.8	Cc1c2ccncc2cc2c3cc(OCC4=NCCN4)cc(F)c3n(C)c12 [Compound 254, 9-((4,5-dihydro-1H-imidazol-2-yl)methoxy)-7-fluoro-5,6-dimethyl-6H-pyrido[4,3-b]carbazole]		IC25 [1, 5]: > 5 µM
9.1		COc1ccc2c(c1)c1cc3c(C(=O)N[C@@H](C)CN(C)C)nccc3c(C)c1n2C [Example 27, (S)—N-(1-(dimethylamino)propan-2-yl)-9-methoxy-5,6-dimethyl-6H-pyrido[4,3-b]carbazole-1-carboxamide]	1	
5.9		Cc1c2ccnc(C(=O)N[C@H](C)CN(C)C)c2cc2c3cc(OCCCN4CCN(C)CC4)ccc3n(C)c12 [Example 26, (R)—N-(1-(dimethylamino)propan-2-yl)-5,6-dimethyl-9-(3-(4-methylpiperazin-1-yl)propoxy)-6H-pyrido[4,3-b]carbazole-1-carboxamide]	0.57	
	3.1	Cc1c2ccncc2cc2c3cc(OCCN4CCC(C)(C)CC4)ccc3n(C)c12 [Compound 223, 9-(2-(4,4-dimethylpiperidin-1-yl)ethoxy)-5,6-dimethyl-6H-pyrido[4,3-b]carbazole]		IC25 [1, 5]: 3.8 µM
2.3		Cc1c2cnccc2cc2c3cc(OCC4=NCCN4)ccc3n(C)c12 [Example 83, 7-(4,5-dihydro-1H-imidazol-2-ylmethoxy)-10,11-dimethyl-pyrido[3,4-b]carbazole]	1.1	

Further lines, the molecule ahead of its results:

Compound	Ki ([3]; Table D) [µM]	Ki ([3]; Table F) [µM]	IC25 [1, 4] [µM]	also measured
Cc1c2ccncc2cc2c3cc(Oc4cccnc4)ccc3n(C)c12 [Compound 311, 5,6-dimethyl-9-(pyridin-3-yloxy)-6H-pyrido[4,3-b]carbazole]				IC50 [1]: 20 µM; Kd [2]: 2.3 µM
Cc1c2ccncc2cc2c3cc(C(=O)N[C@@H](C)CN(C)C)ccc3n(C)c12 [Compound 295, N-[(1S)-2-(dimethylamino)-1-methyl-ethyl]-5,6-dimethyl-pyrido[4,3-b]carbazole-9-carboxamide]				IC50 ([1]; Table G, HEK293T): 41 µM; Kd [2]: 0.35 µM
CNCCOc1ccc2c(c1)c1cc3cnccc3c(C)c1n2C [Compound 321, 2-((5,6-dimethyl-6H-pyrido[4,3-b]carbazol-9-yl)oxy)-N-methylethanamine]				IC50 ([1]; Table G, HEK293T): 3.5 µM; Kd [2]: 0.71 µM
Cc1c2ccncc2cc2c3ccccc3n(CC3=NCCN3)c12 [Compound 317, 6-((4,5-dihydro-1H-imidazol-2-yl)methyl)-5-methyl-6H-pyrido[4,3-b]carbazole]				IC50 ([1]; Table G, HEK293T): 5 µM; Kd [2]: 5 µM
c1cc2cc3[nH]c4ccc(OCC5=NCCN5)cc4c3cc2cn1 [Compound 262, 9-((4,5-dihydro-1H-imidazol-2-yl)methoxy)-6H-pyrido[4,3-b]carbazole]				IC50 ([1]; Table G, HEK293T): 6.6 µM; Kd [2]: 5.2 µM
Cc1c2ccnc(C(=O)NCCN(C)C)c2cc2c3cc(F)c(F)cc3n(C)c12 [Compound 313, N-(2-(dimethylamino)ethyl)-8,9-difluoro-5,6-dimethyl-6H-pyrido[4,3-b]carbazole-1-carboxamide]				IC50 ([1]; Table G, HEK293T): > 100 µM; Kd [2]: 4.7 µM
Cc1c2ccncc2cc2c3cc(OCCN4CCCCC4)ccc3n(C)c12 [Example 31, 5,6-dimethyl-9-(2-(piperidin-1-yl)ethoxy)-6H-pyrido[4,3-b]carbazole]	4.5			IC25 [1]: 2.8 µM
Cc1c2ccnc(C(=O)N[C@H](C)CN(C)C)c2cc2c3ccc(OCCCN4CCN(C)CC4)cc3n(C)c12 [Compound 222, (R)—N-(1-(dimethylamino)propan-2-yl)-5,6-dimethyl-8-(3-(4-methylpiperazin-1-yl)-propoxy)-6H-pyrido[4,3-b]carbazole-1-carboxamide]		6.1		IC25 [1, 5]: > 5 µM
Cc1c2ccncc2cc2c3cc(OC[C@H](C)N)ccc3n(C)c12 [Compound 218, (S)-1-((5,6-dimethyl-6H-pyrido[4,3-b]carbazol-9-yl)oxy)propan-2-amine]		0.8		IC25 [1, 5]: 0.84 µM
Cc1c2ccncc2cc2c3cc(OCCCN(C)C)ccc3n(C)c12 [Compound 6, 3-((5,6-dimethyl-6H-pyrido[4,3-b]carbazol-9-yl)oxy)-N,N-dimethylpropan-1-amine]	32		> 5	
Cc1c2ccncc2cc2c3cc(OCC(=O)NCCN)ccc3n(C)c12 [Compound 4a, N-(2-aminoethyl)-2-((5,6-dimethyl-6H-pyrido[4,3-b]carbazol-9-yl)oxy)acetamide]	4.5		0.9	
Cc1c2ccncc2cc2c1oc1ccc(OCCN3CCOCC3)cc12 [Compound 231, 5-methyl-9-(2-morpholinoethoxy)benzofuro[2,3-g]isoquinoline]		> 200		IC25 [1]: > 5 µM
Cc1c2ccncc2cc2c1oc1ccc(OCCN(C)C)cc12 [Compound 236, N,N-dimethyl-2-((5-methylbenzofuro[2,3-g]isoquinolin-9-yl)oxy)ethanamine]		14		IC25 [1]: > 5 µM
Cc1c2ccncc2cc2c3cc(OCCN4CCS(=O)(=O)CC4)ccc3n(C)c12 [Compound 217, 4-(2-((5,6-dimethyl-6H-pyrido[4,3-b]carbazol-9-yl)oxy)ethyl)thiomorpholine 1,1-dioxide]		8.5		IC25 [1, 5]: > 5 µM
Cc1c2ccncc2cc2c3cc(OCCN4CCC(F)CC4)ccc3n(C)c12 [Compound 229, 9-(2-(4-fluoropiperidin-1-yl)ethoxy)-5,6-dimethyl-6H-pyrido[4,3-b]carbazole]		4.2		IC25 [1]: 2.2 µM
Cc1c2ccncc2cc2c3cc(OCC4=NCCN4)ccc3n(C)c12 [Compound 3, 9-((4,5-dihydro-1H-imidazol-2-yl)methoxy)-5,6-dimethyl-6H-pyrido[4,3-b] carbazole]	8.3		0.1	
Cc1c2ccncc2cc2c3cc(OCC(=O)N4CCN(C)CC4)ccc3n(C)c12 [Example 60, 2-((5,6-dimethyl-6H-pyrido[4,3-b]carbazol-9-yl)oxy)-1-(4-methylpiperazin-1-yl)ethanone]	3.8		> 5	
Cc1c2ccncc2cc2c3cc(C(=O)NCCO)ccc3n(C)c12 [Compound 214, N-(2-hydroxyethyl)-5,6-dimethyl-6H-pyrido[4,3-b]carbazole-9-carboxamide]		3.6		IC25 [1, 5]: 1 µM
CCN(CC)CCCOc1ccc2c(c1)c1cc3cnccc3c(C)c1n2C [Compound 10, 3-((5,6-dimethyl-6H-pyrido[4,3-b]carbazol-9-yl)oxy)-N,N-diethylpropan-1-amine]	7.3		3.2	
Cc1c2ccncc2cc2c3cc(OCCN4CCOCC4)ccc3n(C(C)C)c12 [Compound 235, 4-(2-((6-isopropyl-5-methyl-6H-pyrido[4,3-b]carbazol-9-yl)oxy)ethyl)morpholine]		> 200		IC25 [1]: > 5 µM

From patent US20240067639A1, “SMALL MOLECULES THAT TARGET THE RNA THAT CAUSES ALS” (EXPANSION THERAPEUTICS, INC., priority 2020, published 2024)
